Values of other authors in patent US9763892B2, “Immediate release phospholipid-coated therapeutic agent nanoparticles and related methods” (Autotelic LLC, priority 2015, dated 2017).

Details: phospholipid used for PTX-NPs

Row | SMILES | Transition Temp. [°C]
1 | CCCCCCCCCCCCCCCC(=O)OC[C@H](COP(=O)([O-])OCC[N+](C)(C)C)OC(=O)CCCCCCCCCCCCCCC [PC 16, 1,2-dipalmitoyl-sn-glycero-3-phosphocholine] | 41
2 | CCCCCCCCCCCC(=O)OC[C@H](COP(=O)([O-])OCC[N+](C)(C)C)OC(=O)CCCCCCCCCCC [PC-12, 1,2-dilauroyl-sn-glycero-3-phosphocholine] | −2
3 | CCCCCCCCCCCCCC(=O)OC[C@H](COP(=O)([O-])OCC[N+](C)(C)C)OC(=O)CCCCCCCCCCCCC [PC-14, 1,2-dimyristoyl-sn-glycero-3-phosphocholine] | 24
4 | CCCCCCCC/C=C\CCCCCCCC(=O)OC[C@H](COP(=O)([O-])OCC[N+](C)(C)C)OC(=O)CCCCCCC/C=C\CCCCCCCC [PC-18 (unsaturated), 1,2-dioleoyl-sn-glycero-3-phosphocholine] | −17
5 | CCCCCCCCCCCCCCCCCCCC(=O)OC[C@H](COP(=O)([O-])OCC[N+](C)(C)C)OC(=O)CCCCCCCCCCCCCCCCCCC [PC-20, 1,2-diarachidoyl-sn-glycero-3-phosphocholine] | 66
